Laboratory results reported in patent publication US12421193B2, “GPR52 modulators and methods of use” (Neurocrine Biosciences, Inc., priority 2020, dated 2025).
Structures can show the parent of a compound that is named as a salt.

target: T1, recombinant human GPR52 (Homo sapiens, UniProt Q9Y2T5); assay: TR-FRET cAMP assay (LANCE Ultra cAMP Kit), GPR52 activity; assay type: cell-based; settings: Flp-In-CHO cells stably expressing recombinant human GPR52; cAMP production, normalized to the positive control
T1 construct: expressed in transfected cells
Experimental: TR-FRET cAMP assays were performed using commercially available assay kits (LANCE™ Ultra cAMP Kit). Controls and compounds were solubilized in DMSO using ½ log dilution to generate duplicate 10-point dose response curves in 384-well polypropylene compound plates. Sixty nanoliters of the diluted compounds were transferred into 384-well NBS assay plates and further diluted to 1× with the addition of 2000 cells per well. Flp-In™—CHO cells that stably express recombinant human GPR52.
Cells were harvested with cell stripper and resuspended in Stimulation Buffer (5 mM HEPES, 0.1% bovine serum albumin (BSA), 0.5 mM IBMX, pH 7.4). After thirty minutes incubation at room temperature, detection reagents were added to each well. Plates were then incubated for 30 minutes at room temperature. The LANCE™ Ultra cAMP assay uses time-resolved fluorescence resonance energy transfer (TR-FRET) to detect cAMVP production; this signal was quantified using a Pherastar multi-mode plate reader.
Dose-response curves were generated from the fluorescence counts normalized to the positive control. E EC50 values were obtained using a nonlinear regression curve-fitting program.

T1 sequence (Q9Y2T5 whole entry): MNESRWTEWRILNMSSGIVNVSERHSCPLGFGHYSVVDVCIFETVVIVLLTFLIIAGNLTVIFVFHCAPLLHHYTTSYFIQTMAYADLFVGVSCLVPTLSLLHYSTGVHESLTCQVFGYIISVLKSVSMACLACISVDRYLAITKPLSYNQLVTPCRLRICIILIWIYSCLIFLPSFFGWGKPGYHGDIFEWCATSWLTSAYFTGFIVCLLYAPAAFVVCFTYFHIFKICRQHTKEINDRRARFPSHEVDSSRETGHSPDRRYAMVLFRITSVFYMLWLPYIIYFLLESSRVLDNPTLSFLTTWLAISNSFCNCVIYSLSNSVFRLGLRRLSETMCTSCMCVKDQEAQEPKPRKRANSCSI

EC50 [µM] | SMILES
< 0.025 | COc1cc(OCc2ccnc(-c3ccc(C(N)=O)c(C)c3)c2)ccc1C#N [Example 55, 4-[4-(4-cyano-3-methoxyphenoxymethyl)pyridin-2-yl]-2-methylbenzamide]
0.101 to 1 | Cc1cc(-c2cc(COc3ccc(C#N)c(F)c3)ccn2)ccc1C(=O)NCCO [Example 79, 4-[4-(4-cyano-3-fluorophenoxymethyl)pyridin-2-yl]-N-(2-hydroxyethyl)-2-methylbenzamide]
> 1 | COc1ccc(OCc2cncc(-c3ccc(C(N)=O)c(C)c3)c2)c(Cl)c1 [Example 99, 4-[5-(2-chloro-4-methoxyphenoxymethyl)pyridin-3-yl]-2-methylbenzamide]
0.025 to 0.1 | Cc1cc(-c2cc(COc3ccc(Cl)c(C#N)c3)ccn2)ccc1C(N)=O [Example 49, 4-[4-(4-chloro-3-cyanophenoxymethyl)pyridin-2-yl]-2-methylbenzamide]
< 0.025 | COc1cc(OCc2ccnc(-c3ccc(C(N)=O)c(C)c3)c2)ccc1F [Example 61, 4-[4-(4-fluoro-3-methoxyphenoxymethyl)pyridin-2-yl]-2-methylbenzamide]
> 1 | Cc1cc(-c2cccc(COc3cccc(C(F)(F)F)c3)n2)ccc1C(N)=O [Example 102, 4-{6-[3-(trifluoromethyl)phenoxymethyl]pyridin-2-yl}-2-methylbenzamide]
< 0.025 | Cc1ccc(OCc2ccnc(-c3ccc(C(N)=O)c(C)c3)c2)c(Cl)c1 [Example 44, 4-[4-(2-chloro-4-methylphenoxymethyl)pyridin-2-yl]-2-methylbenzamide]
0.101 to 1 | Cc1cc(-c2cc(COc3ccc4nn(C)cc4c3)ccn2)ccc1C(N)=O [Example 72, 4-(4-{[(2-methyl-2H-indazol-5-yl)oxy]methyl}pyridin-2-yl)-2-methyl benzamide]
< 0.025 | Cc1cc(-c2cc(COc3cc(Cl)cc(Cl)c3)ccn2)ccc1C(N)=O [Example 20, 4-[4-(3,5-dichlorophenoxymethyl)pyridin-2-yl]-2-methylbenzamide]
0.101 to 1 | COc1cc(OCc2cncc(-c3ccc(C(N)=O)c(C)c3)c2)ccc1C(F)(F)F [Example 101, 4-{5-[3-methoxy-4-(trifluoromethyl)phenoxymethyl]pyridin-3-yl}-2-methylbenzamide]
0.025 to 0.1 | Cc1cc(-c2cc(COc3cccc(Cl)c3F)ccn2)ccc1C(N)=O [Example 50, 4-[4-(3-chloro-2-fluorophenoxymethyl)pyridin-2-yl]-2-methylbenzamide]
< 0.025 | CC(=O)c1ccc(OCc2ccnc(-c3ccc(C(N)=O)c(C)c3)c2)cc1F [Example 60, 4-[4-(4-acetyl-3-fluorophenoxymethyl)pyridin-2-yl]-2-methylbenzamide]
0.025 to 0.1 | Cc1cc(-c2ccnc(COc3ccc(C#N)c(F)c3)c2)ccc1C(N)=O [Example 82, 4-[2-(4-cyano-3-fluorophenoxymethyl)pyridin-4-yl]-2-methylbenzamide]
0.025 to 0.1 | N#Cc1ccc(OCc2ccnc(-c3ccc(C(N)=O)c(Cl)c3)c2)cc1F [Example 77, 4-[4-(4-cyano-3-fluorophenoxymethyl)pyridin-2-yl]-2-chlorobenzamide]
0.101 to 1 | Cc1cc(-c2cc(COc3ccc(Cl)c(F)c3)ccn2)ccc1C(N)=O [Example 34, 4-[4-(4-chloro-3-fluorophenoxymethyl)pyridin-2-yl]-2-methylbenzamide]
0.101 to 1 | Cc1ccccc1OCc1ccnc(-c2ccc(C(N)=O)c(C)c2)c1 [Example 46, 4-[4-(2-methylphenoxymethyl)pyridin-2-yl]-2-methylbenzamide]
0.101 to 1 | Cc1cc(-c2cc(COc3ccc(S(C)(=O)=O)cc3)ccn2)ccc1C(N)=O [Example 6, 4-[4-(4-methanesulfonylphenoxymethyl)pyridin-2-yl]-2-methylbenzamide]
0.101 to 1 | COc1cccc(OCc2ccnc(-c3ccc(C(N)=O)c(C)c3)c2)c1 [Example 39, 4-[4-(3-methoxyphenoxymethyl)pyridin-2-yl]-2-methylbenzamide]
0.101 to 1 | COc1cc(OCc2cncc(-c3ccc(C(N)=O)c(C)c3)c2)ccc1C#N [Example 94, 4-[5-(4-cyano-3-methoxyphenoxymethyl)pyridin-3-yl]-2-methylbenzamide]
< 0.025 | Cc1cc(-c2ccnc(COc3ccc(C(F)(F)F)cc3)c2)ccc1C(N)=O [Example 81, 4-{2-[4-(trifluoromethyl)phenoxymethyl]pyridin-4-yl}-2-methylbenzamide hydrochloride]
0.025 to 0.1 | Cc1cc(-c2cc(COc3cc(F)c(C#N)c(F)c3)ccn2)ccc1C(N)=O [Example 10, 4-[4-(4-cyano-3,5-difluorophenoxymethyl)pyridin-2-yl]-2-methylbenzamide]
< 0.025 | Cc1ccc(OCc2ccnc(-c3ccc(C(N)=O)c(C)c3)c2)cc1Cl [Example 18, 4-[4-(3-chloro-4-methylphenoxymethyl)pyridin-2-yl]-2-methylbenzamide]

EC50 [µM] | SMILES
> 1 | Cc1cc(-c2cncc(COc3ccc4cnn(C)c4c3)c2)ccc1C(N)=O [Example 95, 4-(5-{[(1-methyl-1H-indazol-6-yl)oxy]methyl}pyridin-3-yl)-2-methylbenzamide]
0.101 to 1 | Cc1cc(-c2cc(COc3ccc(C#N)c(F)c3F)ccn2)ccc1C(N)=O [Example 9, 4-[4-(4-cyano-2,3-difluorophenoxymethyl)pyridin-2-yl]-2-methylbenzamide]
0.101 to 1 | Cc1cc(-c2cc(COc3cccc4c3CCC4=O)ccn2)ccc1C(N)=O [Example 31, 4-(4-{[(1-oxo-2,3-dihydro-1H-inden-4-yl)oxy]methyl}pyridin-2-yl)-2-methylbenzamide]
< 0.025 | Cc1cc(-c2cc(COc3ccc(C4CC4)c(F)c3)ccn2)ccc1C(N)=O [Example 71, 4-[4-(4-cyclopropyl-3-fluorophenoxymethyl)pyridin-2-yl]-2-methylbenzamide]
0.025 to 0.1 | COc1ccc(OCc2cncc(-c3ccc(C(N)=O)c(C)c3)c2)cc1 [Example 98, 4-[5-(4-methoxyphenoxymethyl)pyridin-3-yl]-2-methylbenzamide]
0.101 to 1 | Cc1cc(-c2cc(COc3cccc(CC#N)c3)ccn2)ccc1C(N)=O [Example 73, 4-{4-[3-(cyanomethyl)phenoxymethyl]pyridin-2-yl}-2-methylbenzamide]
> 1 | COc1ccc(OCc2cncc(-c3ccc(C(N)=O)c(C)c3)c2)cc1OC [Example 96, 4-[5-(3,4-dimethoxyphenoxymethyl)pyridin-3-yl]-2-methylbenzamide]
< 0.025 | COc1ccc(OCc2ccnc(-c3ccc(C(N)=O)c(C)c3)c2)cc1F [Example 62, 4-[4-(3-fluoro-4-methoxyphenoxymethyl)pyridin-2-yl]-2-methylbenzamide]
0.025 to 0.1 | NC(=O)c1ccc(-c2cc(COc3ccc(C(F)(F)F)cc3)ccn2)cc1C(F)(F)F [Example 78, 4-{4-[4-(trifluoromethyl)phenoxymethyl]pyridin-2-yl}-2-(trifluoromethyl)benzamide]
0.101 to 1 | COc1ccc(OCc2ccnc(-c3ccc(C(N)=O)c(C)c3)c2)cc1 [Example 30, 4-[4-(4-methoxyphenoxymethyl)pyridin-2-yl]-2-methylbenzamide]
< 0.025 | Cc1cc(-c2cc(COc3cccc(C(F)(F)F)c3)ccn2)ccc1C(N)=O [Example 2, 4-{4-[3-(trifluoromethyl)phenoxymethyl]pyridin-2-yl}-2-methyl benzamide]
< 0.025 | COc1ccc(OCc2ccnc(-c3ccc(C(N)=O)c(C)c3)c2)c(Cl)c1 [Example 22, 4-[4-(2-chloro-4-methoxyphenoxymethyl)pyridin-2-yl]-2-methylbenzamide]
0.025 to 0.1 | COc1cc(Cl)cc(OCc2ccnc(-c3ccc(C(N)=O)c(C)c3)c2)c1 [Example 24, 4-[4-(3-chloro-5-methoxyphenoxymethyl)pyridin-2-yl]-2-methylbenzamide]
0.101 to 1 | Cc1cc(OCc2ccnc(-c3ccc(C(N)=O)c(C)c3)c2)ccc1F [Example 27, 4-[4-(4-fluoro-3-methylphenoxymethyl)pyridin-2-yl]-2-methylbenzamide]
0.025 to 0.1 | CSc1ccc(OCc2ccnc(-c3ccc(C(N)=O)c(C)c3)c2)cc1 [Example 37, 4-{4-[4-(methylsulfanyl)phenoxymethyl]pyridin-2-yl}-2-methyl benzamide]
0.101 to 1 | Cc1cc(-c2cncc(COc3cc(F)cc(F)c3)c2)ccc1C(N)=O [Example 93, 4-[5-(3,5-difluorophenoxymethyl)pyridin-3-yl]-2-methylbenzamide]
0.101 to 1 | Cc1cc(F)ccc1OCc1ccnc(-c2ccc(C(N)=O)c(C)c2)c1 [Example 29, 4-[4-(4-fluoro-2-methylphenoxymethyl)pyridin-2-yl]-2-methylbenzamide]
0.101 to 1 | Cc1cc(-c2cc(COc3ccccc3C(F)(F)F)ccn2)ccc1C(N)=O [Example 3, 4-{4-[2-(trifluoromethyl)phenoxymethyl]pyridin-2-yl}-2-methyl benzamide]
< 0.025 | Cc1cc(-c2ccnc(COc3ccc4c(c3)OCC4)c2)ccc1C(N)=O [Example 88, 4-{2-[(2,3-dihydro-1-benzofuran-6-yloxy)methyl]pyridin-4-yl}-2-methylbenzamide]
0.025 to 0.1 | Cc1cccc(OCc2ccnc(-c3ccc(C(N)=O)c(C)c3)c2)c1 [Example 38, 4-[4-(3-methylphenoxymethyl)pyridin-2-yl]-2-methyl benzamide]
0.101 to 1 | Cc1cc(-c2cc(COC3CCCCC3)ccn2)ccc1C(N)=O [Example 104, 4-{4-[(cyclohexyloxy)methyl]pyridin-2-yl}-2-methylbenzamide]
